Read-outs that look alike come from different tables or passages of the source.
How the values were obtained:
[1] = test system: S. aureus ATCC 33592
Method in brief: (§1)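 Salt and pH tolerance was assessed by determining MICs in LYM medium containing 50–300 mM NaCl, 0.5–2.5 mM MgCl2, or at pH 4.5–6.5, alongside MH broth. The inoculum was 5 × 10^5 CFU/mL.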

[2] = test system: S. aureus ATCC 33591
Method in brief: as §1

[3] = test system: S. aureus ATCC 33593
Method in brief: as §1

[4] = test system: Pseudomonas aeruginosa Migula (ATCC 27853)
Method in brief: as §1

[5] = test system: Both Gram-positive and -negative bacteria; assay: Geometric mean MIC, therapeutic index and fold changes of MIC, whole panel of strains; format: cell-based; conditions: for GM G−/+ (geometric mean of the MIC values): Both Gram-positive and -negative bacteria, MIC >50 µg/mL counted as 100 µg/mL; for Therapeutic Index (TI) G−/+: HC10/GM, both Gram-positive and -negative bacteria
Method in brief: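 Therapeutic index taken as the ratio of HC10 on human erythrocytes to geometric mean MIC. MICs from CLSI broth microdilution with peptides at 50 down to 0.78 µg/mL, inoculum 5 × 10^5 CFU/mL, in MH or modified LYM broth; triplicate independent experiments.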

[6] = LYM broth, 0 mM NaCl, 16 h, 37 °C
[7] = LYM broth, 50 mM NaCl, 16 h, 37 °C
[8] = LYM broth, 100 mM NaCl, 16 h, 37 °C
[9] = LYM broth, 200 mM (NaCl), 16 h, 37 °C
[10] = LYM broth, 300 mM (NaCl), 16 h, 37 °C
[11] = MH broth, 5 × 10^5 CFU/mL, 16 h, 37 °C, repeated three times

Ac-WLKWLAKKKKWRK-NH2 [Peptide W5K05]
MIC [1, 6]: 6.25 µg/mL | MIC ([1]; LYM broth, 0.5 mM MgCl2): 12.5 µg/mL | MIC ([1]; LYM broth, 1.5 mM MgCl2): 12.5 µg/mL | MIC ([1]; LYM broth, 2.5 mM MgCl2): 12.5 µg/mL | MIC [1, 7]: 12.5 µg/mL | MIC [1, 8]: 12.5 µg/mL | MIC [1, 9]: 25 µg/mL | MIC [1, 10]: 50 µg/mL | MIC ([1]; LYM broth, pH 4.5): 6.25 µg/mL | MIC ([1]; LYM broth, pH 5.5): 6.25 µg/mL | MIC ([1]; LYM broth, pH 6.5): 3.13 µg/mL | MIC [1, 11]: 50 µg/mL | MIC [2, 6]: 6.25 µg/mL | MIC ([2]; LYM broth, 0.5 mM MgCl2): 6.25 µg/mL | MIC ([2]; LYM broth, 1.5 mM MgCl2): 12.5 µg/mL | MIC ([2]; LYM broth, 2.5 mM MgCl2): 12.5 µg/mL | MIC [2, 7]: 6.25 µg/mL | MIC [2, 8]: 12.5 µg/mL | MIC [2, 9]: 25 µg/mL | MIC [2, 10]: 50 µg/mL | MIC ([2]; LYM broth, pH 4.5): 6.25 µg/mL | MIC ([2]; LYM broth, pH 5.5): 3.13 µg/mL | MIC ([2]; LYM broth, pH 6.5): 3.13 µg/mL | MIC [2, 11]: 50 µg/mL | MIC [3, 6]: 6.25 µg/mL | MIC ([3]; LYM broth, 0.5 mM MgCl2): 12.5 µg/mL | MIC ([3]; LYM broth, 1.5 mM MgCl2): 12.5 µg/mL | MIC ([3]; LYM broth, 2.5 mM MgCl2): 12.5 µg/mL | MIC [3, 7]: 6.25 µg/mL | MIC [3, 8]: 12.5 µg/mL | MIC [3, 9]: 25 µg/mL | MIC [3, 10]: 50 µg/mL | MIC ([3]; LYM broth, pH 4.5): 3.13 µg/mL | MIC ([3]; LYM broth, pH 5.5): 3.13 µg/mL | MIC ([3]; LYM broth, pH 6.5): 3.13 µg/mL | MIC [3, 11]: 50 µg/mL | MIC [4, 6]: 3.13 µg/mL | MIC ([4]; LYM broth, 0.5 mM MgCl2): 3.13 µg/mL | MIC ([4]; LYM broth, 1.5 mM MgCl2): 3.13 µg/mL | MIC ([4]; LYM broth, 2.5 mM MgCl2): 6.25 µg/mL | MIC [4, 7]: 6.25 µg/mL | MIC [4, 8]: 12.5 µg/mL | MIC [4, 9]: >50 µg/mL | MIC [4, 10]: >50 µg/mL | MIC ([4]; LYM broth, pH 4.5): 1.56 µg/mL | MIC ([4]; LYM broth, pH 5.5): 1.56 µg/mL | MIC ([4]; LYM broth, pH 6.5): 1.56 µg/mL | MIC [4, 11]: 25 µg/mL | GM G−/+ (geometric mean of the MIC values) ([5]; MH broth): 20.3 µg/mL | Therapeutic Index (TI) G−/+ [5]: 5.4

Ac-WRKWLKWLAKKKK-NH2 [Peptide W5K02]
MIC [1, 6]: 6.25 µg/mL | MIC ([1]; LYM broth, 0.5 mM MgCl2): 6.25 µg/mL | MIC ([1]; LYM broth, 1.5 mM MgCl2): 6.25 µg/mL | MIC ([1]; LYM broth, 2.5 mM MgCl2): 6.25 µg/mL | MIC [1, 7]: 6.25 µg/mL | MIC [1, 8]: 12.5 µg/mL | MIC [1, 9]: 50 µg/mL | MIC [1, 10]: >50 µg/mL | MIC ([1]; LYM broth, pH 4.5): 6.25 µg/mL | MIC ([1]; LYM broth, pH 5.5): 6.25 µg/mL | MIC ([1]; LYM broth, pH 6.5): 6.25 µg/mL | MIC [1, 11]: 25 µg/mL | MIC [2, 6]: 6.25 µg/mL | MIC ([2]; LYM broth, 0.5 mM MgCl2): 6.25 µg/mL | MIC ([2]; LYM broth, 1.5 mM MgCl2): 6.25 µg/mL | MIC ([2]; LYM broth, 2.5 mM MgCl2): 6.25 µg/mL | MIC [2, 7]: 6.25 µg/mL | MIC [2, 8]: 12.5 µg/mL | MIC [2, 9]: 50 µg/mL | MIC [2, 10]: 50 µg/mL | MIC ([2]; LYM broth, pH 4.5): 6.25 µg/mL | MIC ([2]; LYM broth, pH 5.5): 6.25 µg/mL | MIC ([2]; LYM broth, pH 6.5): 6.25 µg/mL | MIC [2, 11]: 25 µg/mL | MIC [3, 6]: 6.25 µg/mL | MIC ([3]; LYM broth, 0.5 mM MgCl2): 6.25 µg/mL | MIC ([3]; LYM broth, 1.5 mM MgCl2): 6.25 µg/mL | MIC ([3]; LYM broth, 2.5 mM MgCl2): 6.25 µg/mL | MIC [3, 7]: 6.25 µg/mL | MIC [3, 8]: 12.5 µg/mL | MIC [3, 9]: 50 µg/mL | MIC [3, 10]: >50 µg/mL | MIC ([3]; LYM broth, pH 4.5): 6.25 µg/mL | MIC ([3]; LYM broth, pH 5.5): 6.25 µg/mL | MIC ([3]; LYM broth, pH 6.5): 3.13 µg/mL | MIC [3, 11]: 25 µg/mL | MIC [4, 6]: 6.25 µg/mL | MIC ([4]; LYM broth, 0.5 mM MgCl2): 6.25 µg/mL | MIC ([4]; LYM broth, 1.5 mM MgCl2): 6.25 µg/mL | MIC ([4]; LYM broth, 2.5 mM MgCl2): 6.25 µg/mL | MIC [4, 7]: 6.25 µg/mL | MIC [4, 8]: 25 µg/mL | MIC [4, 9]: >50 µg/mL | MIC [4, 10]: >50 µg/mL | MIC ([4]; LYM broth, pH 4.5): 3.13 µg/mL | MIC ([4]; LYM broth, pH 5.5): 3.13 µg/mL | MIC ([4]; LYM broth, pH 6.5): 3.13 µg/mL | MIC [4, 11]: 25 µg/mL | GM G−/+ (geometric mean of the MIC values) ([5]; MH broth): 12.5 µg/mL | Therapeutic Index (TI) G−/+ [5]: 1.3 | weakening of bactericidal efficacy (MIC) ([5]; LYM broth, 2.5 mM MgCl2): 4 fold | folds higher MIC values than W5KA9W ([5]; MH broth, in most bacteria strains): 2–8 fold

Source: PMC12649549, “Sequence Permutation Generated Lysine and Tryptophan-Rich Antimicrobial Peptides with Enhanced Therapeutic Index” (Antibiotics, 2025)
